Results as given in article PMC5681660, “Reduced hepatitis B and D viral entry using clinically applied drugs as novel inhibitors of the bile acid transporter NTCP” (Scientific Reports, 2017).
Structures can show the parent of a compound that is named as a salt.

Columns and labels:
[1] = target: T1, human NTCP (Homo sapiens, UniProt Q14973); test: Screening taurocholate uptake assay (96-well, [14C]taurocholate, 10 µM drug); conditions: for B-score functional assay: 10 µM drug
T1 sequence (Q14973 1-349): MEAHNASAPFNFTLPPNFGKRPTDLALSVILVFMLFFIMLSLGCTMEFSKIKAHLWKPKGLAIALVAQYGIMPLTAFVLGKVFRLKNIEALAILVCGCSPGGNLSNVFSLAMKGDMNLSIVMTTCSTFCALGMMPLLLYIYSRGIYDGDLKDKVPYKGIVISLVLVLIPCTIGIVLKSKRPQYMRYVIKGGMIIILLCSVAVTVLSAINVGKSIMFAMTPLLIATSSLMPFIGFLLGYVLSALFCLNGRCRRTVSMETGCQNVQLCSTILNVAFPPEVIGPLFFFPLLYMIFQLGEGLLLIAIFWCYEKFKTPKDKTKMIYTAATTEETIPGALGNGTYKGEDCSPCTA

[2] = target: T1, human NTCP; test: Screening fluorescent competitive Myrcludex B-FITC binding assay (96-well, 10 µM drug); conditions: 10 µM drug
[3] = Prestwick library screen, B-score of taurocholate uptake
[4] = combined ranking from functional and binding assay B-scores
[5] = Prestwick library screen, B-score of Myrcludex B-FITC binding
[6] = combined ranking from functional and binding screening assays
[7] = screen, Myrcludex B-FITC binding
[8] = Prestwick library screen, taurocholate uptake
[9] = ranking score beside the functional and binding assay B-scores of the screen
[10] = Prestwick library screen, Myrcludex B-FITC binding

SMILES | Ranking score [1, 6] | B-score functional assay ([1]; screen, taurocholate uptake) | B-score binding assay [2, 7] | B-score functional assay [1, 8] | Ranking score [1, 9] | B-score binding assay [2, 10] | further results
Cl.N=C(N=C(N)N)N1CCOCC1 [Moroxidine hydrochloride] |  |  |  |  |  |  | B-score functional assay [1, 3]: 1.373; Ranking score [1, 4]: 1132.99; B-score binding assay [2, 5]: 1.496
Cl.Clc1ccc(Cn2c(CN3CCCC3)nc3ccccc32)cc1 [Clemizole hydrochloride] | 418.626 | 2.268 | -1.618 |  |  |  | 
CN(C/C=C/C#CC(C)(C)C)Cc1cccc2ccccc12 [Terbinafine] |  |  |  | 3.878 | 842.5 | -0.07 | 
Cc1ncc(CO)c(CO)c1O [Pyridoxine hydrochloride] |  |  |  |  |  |  | B-score functional assay [1, 3]: 0.632; Ranking score [1, 4]: 1004.23; B-score binding assay [2, 5]: 1.062
CCCCCCCCNC(C)C(O)c1ccc(SC(C)C)cc1 (stereo not drawn) [Suloctidil] | 345.514 | 4.189 | -2.148 |  |  |  | 
Cc1ccsc1/C=C/C1=NCCCN1C [Morantel tartrate] | 381 | -0.483 | -0.484 |  |  |  | 
NC12CC3CC(CC(C3)C1)C2.O=C(O)/C=C/C(=O)O [Adamantamine fumarate] |  |  |  | -0.004 | 748.28 | 0.399 | 
CN(C)CCOC(=O)COc1ccc(Cl)cc1.Cl [Meclofenoxate hydrochloride] | 355.4 | -0.036 | -1.168 |  |  |  | 
Cl.c1cnc(N2CCN(Cc3ccc4c(c3)OCO4)CC2)nc1 [Piribedil hydrochloride] |  |  |  |  |  |  | B-score functional assay [1, 3]: 0.676; Ranking score [1, 4]: 974.49; B-score binding assay [2, 5]: 0.754
CC(C)N(CCC(C(N)=O)(c1ccccc1)c1ccccn1)C(C)C (stereo not drawn) [Disopyramide] |  |  |  |  |  |  | B-score functional assay [1, 3]: 0.051; Ranking score [1, 4]: 925.407; B-score binding assay [2, 5]: 2.245
O=C(CCCN1CCC(O)(c2ccc(Br)cc2)CC1)c1ccc(F)cc1 [Bromperidol] |  |  |  | 0.496 | 757.533 | -0.002 | 
C[C@]12CC[C@@H]3c4ccc(O)cc4CC[C@H]3[C@@H]1CCC2=O [Estrone] |  |  |  |  |  |  | B-score functional assay [1, 3]: 0.06; Ranking score [1, 4]: 855.9; B-score binding assay [2, 5]: 0.944
Nc1ncnc2c1ncn2[C@@H]1O[C@H](CO)[C@@H](O)[C@@H]1O [Vidarabine] | 319.086 | -2.606 | 1.523 |  |  |  | 
CN(C)CCOC(C)(c1ccccc1)c1ccccn1 (stereo not drawn) [Doxylamine succinate] | 393.435 | 0.231 | -1.318 |  |  |  | 
Nc1ccc(C(=O)O)c(O)c1 [4-aminosalicylic acid] | 360.074 | -0.405 | -0.683 |  |  |  | 
NCCc1ccc(O)c(O)c1 [Dopamine hydrochloride] |  |  |  | -0.07 | 802.566 | 1.493 | 
CCCCCCCN(CC)CCCC(O)c1ccc(NS(C)(=O)=O)cc1.CCCCCCCN(CC)CCCC(O)c1ccc(NS(C)(=O)=O)cc1.O=C(O)/C=C/C(=O)O (stereo not drawn) [Ibutilide fumarate] |  |  |  | 0.035 | 835.048 | 0.907 | 
CC(Cc1ccc(O)cc1)NCC(O)c1cc(O)cc(O)c1 (stereo not drawn) [Fenoterol hydrobromide] | 457.393 | 1.4 | -1.328 |  |  |  | 
COc1ccc(C(=O)c2ccccc2)c(O)c1 [Oxybenzone] |  |  |  | 2.742 | 706.929 | -0.416 | 
CN(C)/N=N/c1[nH]cnc1C(N)=O [Dacarbazine] |  |  |  |  |  |  | B-score functional assay [1, 3]: 0.084; Ranking score [1, 4]: 928.431; B-score binding assay [2, 5]: 1.762
COC(=O)N/N=C/c1c[n+]([O-])c2ccccc2[n+]1[O-] [Carbadox] |  |  |  |  |  |  | B-score functional assay [1, 3]: 0.663; Ranking score [1, 4]: 963.5; B-score binding assay [2, 5]: 0.674
O=C(c1ccccc1)c1ccc2n1CCC2C(=O)O (stereo not drawn) [Ketorolac tromethamine] | 396.636 | -0.269 | -0.614 |  |  |  | 
c1ccc2[nH]c(-c3cscn3)nc2c1 [Tiabendazole] |  |  |  |  |  |  | B-score functional assay [1, 3]: 0.849; Ranking score [1, 4]: 925.084; B-score binding assay [2, 5]: 0.306
CC1=C(C(=O)O)N2C(=O)[C@@H](NC(=O)[C@H](N)c3ccc(O)cc3)[C@H]2SC1 [Cefadroxil] | 439.805 | -0.032 | -0.675 |  |  |  | 
CN(C)CCCO[C@@H]1[C@H]2OC(C)(C)O[C@H]2O[C@@H]1[C@H](O)CO [Amiprilose hydrochloride] |  |  |  | 0.017 | 760.053 | 0.378 | 
CC(=O)OCC(=O)[C@H]1CC[C@H]2[C@@H]3CC[C@H]4C[C@H](O)CC[C@]4(C)[C@H]3C(=O)C[C@]12C [Alfadolone acetate] |  |  |  |  |  |  | B-score functional assay [1, 3]: 0.626; Ranking score [1, 4]: 1074.24; B-score binding assay [2, 5]: 2.253
O=C(O)CN(CCN(CC(=O)O)CC(=O)O)CCN(CC(=O)O)CC(=O)O [Pentetic acid] | 406.409 | -0.313 | -0.525 |  |  |  | 

Second part, led by results:

Ranking score [1, 6] | B-score functional assay ([1]; screen, taurocholate uptake) | B-score binding assay [2, 7] | B-score functional assay [1, 8] | Ranking score [1, 9] | B-score binding assay [2, 10] | SMILES | further results
 |  |  | -0.031 | 801.329 | 1.175 | C[C@@H]1CN([C@H]2CC[C@](C#N)(c3ccc(F)cc3)CC2)CC[C@]1(C(=O)O)c1ccccc1 [Levocabastine hydrochloride] | 
342.783 | -0.011 | -1.319 |  |  |  | O=C1CN(/N=C/c2ccc(-c3ccc([N+](=O)[O-])cc3)o2)C(=O)[N-]1.[Na+] [Dantrolene sodium salt] | 
362.647 | -0.597 | -0.495 |  |  |  | CCC(=O)[C@@]1(C)[C@H](C)C[C@H]2[C@@H]3CCC4=CC(=O)C=C[C@]4(C)[C@H]3[C@@H](O)C[C@@]21C [Rimexolone] | 
 |  |  | 0.284 | 811.615 | 0.177 | CC1CC(OC(=O)c2ccccc2O)CC(C)(C)C1 (stereo not drawn) [Homosalate] | 
411.191 | 0.533 | -1.334 |  |  |  | Nc1ccn([C@@H]2CS[C@H](CO)O2)c(=O)n1 [Lamivudine] | 
352.224 | -1.554 | 0.063 |  |  |  | Nc1[nH]c(=O)ncc1F [Flucytosine] | 
 |  |  | -0.089 | 751.977 | 0.972 | CC(=O)S[C@@H]1CC2=CC(=O)CC[C@]2(C)[C@H]2CC[C@@]3(C)[C@@H](CC[C@@]34CCC(=O)O4)[C@H]12 [Spironolactone] | 
 |  |  | 0.071 | 822.943 | 0.598 | CCN1CCCC1CNC(=O)c1cc(S(N)(=O)=O)ccc1OC (stereo not drawn) [Sulpiride] | 
 |  |  | 1.923 | 735.139 | -0.283 | C[C@]12C=CC(=O)C=C1CC[C@H]1[C@@H]3C[C@@H](O)[C@](O)(C(=O)CO)[C@@]3(C)C[C@H](O)[C@@]12F [Triamcinolone] | 
328.253 | 0.349 | -1.829 |  |  |  | CC1(C)OC(=O)NC1=O [Dimethadione] | 
 |  |  | 0.621 | 752.533 | -0.033 | CC1(C)O[C@@H]2C[C@H]3[C@@H]4C[C@H](F)C5=CC(=O)C=C[C@]5(C)[C@@]4(F)[C@@H](O)C[C@]3(C)[C@]2(C(=O)CO)O1 [Fluocinolone acetonide] | 
